Reference: PMC8408311 (Diabetologia, 2021)
Like-named read-outs stand apart in the source and are kept apart here. Where no end group is shown, it is not given here.

Columns and labels:
[1] = test system: primary cilium of islet beta cells; test: Cilia Ca2+ imaging in mouse islets; format: cell-based; conditions: GABA 1-10 nM; GABAB-receptor agonist Baclofen; Vigabatrin (inhibition of GABA degradation)
[2] = test system: C2C12 myotubes; test: C2-ceramide recycling and insulin response in C2C12 myotubes; format: cell-based, mouse
[3] = test system: male Wistar rats; test: 30-min filament middle cerebral artery occlusion; format: in vivo, rat; conditions: 48 h after MCAO; healthy 18 points, maximal deficit 3 points
[4] = test system: H9C2 cells; test: 2-NBD-Glucose uptake; format: cell-based; conditions: for 2-NBD-Glucose uptake after MG: 25μM MG 24h, after 60 min; for 2-NBD-Glucose uptake after insulin: 100nM 30min, 20 minutes
[5] = test system: mouse cardiac endothelial cells (MCECs); test: Methylglyoxal treatment of mouse cardiac endothelial cells; format: cell-based
[6] = Sodium-phenylbutyrate 2-week crossover trial in type 2 diabetes
[7] = test system: INS1E cells; test: Fatty acid toxicity in INS1E cells; format: cell-based, rat; conditions: 24 h
[8] = SURPASS-2, add-on to metformin in type 2 diabetes; format: in vivo, human; conditions: TZP range over 5-15 mg; SEMA 1 mg
[9] = 3-month exercise training with carnosine or placebo in overweight elderly; format: in vivo, human
[10] = Ciprofibrate 5-week crossover study in prediabetic male volunteers; format: in vivo, human
[11] = Contribution of HFCS-55 fructose to hepatic fatty acid synthesis, 13C/2H NMR; format: in vivo, mouse
[12] = SUSTAIN 10 post hoc analysis by baseline SGLT-2i; format: in vivo, human
[13] = test system: INS-1 832/13 cells; test: mRNA expression in INS-1 832/13 cells under ER stress; format: cell-based, rat
[14] = format: in vivo, human; conditions: once weekly
[15] = RESTORE-2 naive cohort, retrospective propensity score matched study; format: in vivo, human; conditions: for Incidence rate of blood glucose <54 mg/dl / Incidence rate of blood glucose ≤70 mg/dl: during 6 months; for FBG change at 6 months / FBG reduction at 6 months / HbA1c reduction from baseline to 12 months: in vivo; for HbA1c change from baseline to 6 months: propensity score matched, 357 per cohort
[16] = test system: Arrb2-/- beta cells; test: Incretin responses in Arrb2-/- beta cells; format: cell-based, mouse
[17] = Insulin icodec titration trial, CGM hypoglycaemia duration, insulin-naive T2D; format: in vivo, human; conditions: 4.4-7.2 mmol/L ±4 U/day
[18] = format: in vivo, human; conditions: comparator arm
[19] = 2-step hyperinsulinemic-euglycemic clamp
[20] = training combined with carnosine 2g/day

## NCC(CC(=O)O)c1ccc(Cl)cc1 (stereo not shown) [Baclofen]
[1]
  Increase of occurrence of cilia Ca2+ flashes: 3-4 fold

## CCCCCCCCCCCCC/C=C/[C@@H](O)[C@H](CO)NC(C)=O [C2cer, C2-Cer]
[2]; at 25 mM glucose
  Effect on the insulin signal: inhibited completely the insulin signal

## NCCCC(=O)O [GABA, Gamma aminobutyric acid]
[1]
  Increase of occurrence of cilia Ca2+ flashes: 3-4 fold

## CN(C)C(=N)N=C(N)N [MET, metformin]
[3]
  Garcia score (neurological deficit): 12.0 (6.5; 12.5) points

## CC(=O)C=O [MG, methylglyoxal]
[4]; 20mM glucose, printed 54% vs 44%
  2-NBD-Glucose uptake after MG: 54%
[4]; 30 mM glucose, printed 50% vs 39%
  2-NBD-Glucose uptake after MG: 50%
[5]; 500 μM, Hspa1a/Hspa1b KO cells
  Hspa9 mRNA, mean: 1.52 fold
  Hspa9 protein, mean: 3.17
  Hspd1 mRNA, mean: 1.57 fold
  Hspd1 protein, mean: 3.84
[5]; 500 μM, wild-type cells
  Drp1 mRNA: 1.39 fold
  Hspa1a mRNA, mean: 1.57 fold
  Hspa1a/Hspa1b protein level, mean: 1.56 fold
  Hspa1b mRNA, mean: 1.78 fold
  Hspa9 mRNA, mean: 1.42 fold
  Hspa9 protein, mean: 1.96 fold
  Hspd1 mRNA, mean: 2.11 fold
  Hspd1 protein, mean: 2.35 fold
[5]; Hspa1a/Hspa1b KO cells
  Drp1 mRNA, mean: 2.11
[5]; after MG treatment
  Bnip3, mean: 0.39 fold
  Parkin, mean: 0.45 fold
  Pink1, mean: 0.69 fold

## O=C(O)CCCc1ccccc1 [NaPB, sodium-phenylbutyrate]
[6]; [19]
  Peripheral insulin sensitivity, higher than placebo: 27%
  ΔRd (insulin-stimulated glucose disposal rate minus baseline): 13.2 ± 1.8 µmol/kg/min
[6]; 4.8 g/m²/day for 2 weeks, LCMS
  Increase of plasma phenylbutyrate levels vs placebo: 5.5 fold
[6]; after 2 weeks
  Fasting glucose: 7.8 ± 0.4 mmol/L
  Fasting plasma isoleucine: 105.2 ± 3.5 µmol/L
  Fasting plasma leucine: 168.7 ± 5.1 µmol/L
  Fasting plasma valine: 275.3 ± 10.3 µmol/L
[6]; clamp
  Peripheral insulin-mediated glucose oxidation: 11.9 ± 0.7 µmol/kg/min
  ΔRER (metabolic flexibility): 0.09 ± 0.01
[6]; skeletal muscle ex vivo
  O2-flux, maximally coupled mitochondrial respiration fueled by pyruvate: 74.0 ± 4.1 pmol/s/mg

## CCCCCCCC/C=C\CCCCCCCC(=O)O [OA, oleate]
[7]; INS1E-ctr cells, 500 μM each fatty acid, MTT
  Cell viability: 91%

## CCCCCCCCCCCCCCCC(=O)O [PA, palmitate]
[7]; INS1E-SPL cells, 500 μM
  Viability decrease stronger than in INS1E-ctr: ~ 25%
[7]; INS1E-SPP cells, 500 μM
  Cell viability loss: 20%

## CC[C@H](C)[C@H](NC(=O)[C@H](Cc1ccccc1)NC(=O)[C@H](CCC(=O)O)NC(=O)[C@H](CCCCNC(=O)COCCOCCNC(=O)COCCOCCNC(=O)CC[C@H](NC(=O)CCCCCCCCCCCCCCCCC(=O)O)C(=O)O)NC(=O)[C@H](C)NC(=O)[C@H](C)NC(=O)[C@H](CCC(N)=O)NC(=O)CNC(=O)[C@H](CCC(=O)O)NC(=O)[C@H](CC(C)C)NC(=O)[C@H](Cc1ccc(O)cc1)NC(=O)[C@H](CO)NC(=O)[C@H](CO)NC(=O)[C@@H](NC(=O)[C@H](CC(=O)O)NC(=O)[C@H](CO)NC(=O)[C@@H](NC(=O)[C@H](Cc1ccccc1)NC(=O)[C@@H](NC(=O)CNC(=O)[C@H](CCC(=O)O)NC(=O)C(C)(C)NC(=O)[C@@H](N)Cc1cnc[nH]1)[C@@H](C)O)[C@@H](C)O)C(C)C)C(=O)N[C@@H](C)C(=O)N[C@@H](Cc1c[nH]c2ccccc12)C(=O)N[C@@H](CC(C)C)C(=O)N[C@H](C(=O)N[C@@H](CCCNC(=N)N)C(=O)NCC(=O)N[C@@H](CCCNC(=N)N)C(=O)NCC(=O)O)C(C)C [SEMA, semaglutide]
[8]
  Diarrhoea: 12%
  Nausea: 18%
  Vomiting: 8%

## C=CC(N)CCC(=O)O (stereo not shown) [Vigabatrin]
[1]
  Increase of occurrence of cilia Ca2+ flashes: 3-4 fold

## NCCCC(O)(P(=O)(O)O)P(=O)(O)O [alendronate]
Ever use
  Crude OR of developing type 2 diabetes: 0.93
  Multiple adjusted OR of developing type 2 diabetes: 0.64
More than 8 years of use
  Adjusted OR of developing type 2 diabetes: 0.47

## NCCC(=O)N[C@@H](Cc1cnc[nH]1)C(=O)O [carnosine]
[9]; exercise with carnosine
  Stimulation of coupled mitochondrial respiration rate in permeabilized muscle fibers, compared to exercise alone: 36.5%
[9]; [20]
  Improvement in aerobic fitness (VO2max): 14.8%
  Improvement in metabolic flexibility (ΔRQ): 7.3%
[9]; training combined with carnosine 2g/day, 3 months
  Improvement in sit-to-stand test: 9.2%

## COc1ccc(/C=C/C(=O)c2c(-c3ccccc3)c3ccccc3[nH]c2=O)cc1 [ceranib-2]
[2]; 2 h treatment, ceranib-2 alone
  Accumulation in total endogenous Cer content: 50%

## CC(C)(Oc1ccc(C2CC2(Cl)Cl)cc1)C(=O)O (stereo not shown) [ciprofibrate]
[10]; 100 mg/day for 5 weeks
  Hepatic lipid content: 10.4 ± 10.0%
  Serum triglycerides: 1.57 ± 1.05 mmol/L
[10]; 18F-FDG PET during clamp
  Myocardial net glucose uptake: 0.040 ± 0.024 ml/100ml/min/mIU insulin
[10]; 18F-FDG PET during hyperinsulinemic euglycemic clamp
  Net hepatic glucose uptake (Ki): 0.7 ± 0.2 ml/100ml/min

## O=C(CO)[C@@H](O)[C@H](O)[C@H](O)CO [fructose]
[11]; HFHS mice
  contribution of acetyl-CoA to oleate synthesis: 7 ± 2%
  contribution of acetyl-CoA to palmitoleate synthesis: 7 ± 2%
  contribution of acetyl-CoA to the synthesis of SFA: 18 ± 3%
[11]; HS mice
  contribution of acetyl-CoA to oleate synthesis: 16 ± 3%
  contribution of acetyl-CoA to palmitoleate synthesis: 18 ± 3%
[11]; HS mice, mean ± standard error
  contribution of acetyl-CoA to the synthesis of SFA: 28 ± 4%

## CC[C@H](C)[C@H](NC(=O)[C@H](Cc1ccccc1)NC(=O)[C@H](CCC(=O)O)NC(=O)[C@H](CCCCNC(=O)COCCOCCNC(=O)COCCOCCNC(=O)CC[C@H](NC(=O)CCCCCCCCCCCCCCCCC(=O)O)C(=O)O)NC(=O)[C@H](C)NC(=O)[C@H](C)NC(=O)[C@H](CCC(N)=O)NC(=O)CNC(=O)[C@H](CCC(=O)O)NC(=O)[C@H](CC(C)C)NC(=O)[C@H](Cc1ccc(O)cc1)NC(=O)[C@H](CO)NC(=O)[C@H](CO)NC(=O)[C@@H](NC(=O)[C@H](CC(=O)O)NC(=O)[C@H](CO)NC(=O)[C@@H](NC(=O)[C@H](Cc1ccccc1)NC(=O)[C@@H](NC(=O)CNC(=O)[C@H](CCC(=O)O)NC(=O)C(C)(C)NC(=O)[C@@H](N)Cc1cnc[nH]1)[C@@H](C)O)[C@@H](C)O)C(C)C)C(=O)N[C@@H](C)C(=O)N[C@@H](Cc1c[nH]c2ccccc12)C(=O)N[C@@H](CC(C)C)C(=O)N[C@H](C(=O)N[C@@H](CCCNC(=N)N)C(=O)NCC(=O)N[C@@H](CCCNC(=N)N)C(=O)NCC(=O)O)C(C)C [semaglutide]
[12]; with SGLT-2i
  Premature treatment discontinuations due to AEs: 5.5%
[12]; without SGLT-2i
  Premature treatment discontinuations due to AEs: 13.4%

## C/C=C(/C)C(=O)O[C@H]1C(C)=C2[C@H]([C@@H]1OC(=O)CCCCCCC)[C@@](C)(OC(C)=O)C[C@H](OC(=O)CCC)[C@@]1(O)[C@H]2OC(=O)[C@@]1(C)O [thapsigargin]
[13]
  Decrease of insulin mRNA expression (Ins1 and Ins2): 85%
  Increase of Atf4 mRNA expression: 3.0 fold
  Increase of Atf6 mRNA expression: 1.8 fold
  Increase of Cebpg mRNA expression: 3.7 fold
  Increase of Xbp1s mRNA expression: 2.9 fold

## Basal insulin Fc [BIF]
[14]; BIF-A1, fasting glucose target ≤7.8 mmol/L
  HbA1c reduction from baseline to Week 32, mean±SE: 0.6±0.1%
[14]; BIF-A2, fasting glucose target ≤6.7 mmol/L
  HbA1c reduction from baseline to Week 32, mean±SE: 0.6±0.1%

## Insulin Degludec 100 U/mL [IDeg-100]
[15]
  Incidence rate of blood glucose <54 mg/dl: 0.02 episodes per patient-months
  Incidence rate of blood glucose ≤70 mg/dl: 0.14 episodes per patient-months
  FBG change at 6 months: -61 mg/dL
  FBG reduction at 6 months: 3.4 mmol/L
  HbA1c reduction from baseline to 12 months: -1.44%
  HbA1c change from baseline to 6 months: -1.69%

## Insulin Glargine 300U/mL [Gla-300]
[15]; 95%CI -0.29;0.27
  Between group mean difference in HbA1c at 6 months, Gla-300 vs IDeg-100: 0.01%
[15]
  Incidence rate of blood glucose <54 mg/dl: 0.02 episodes per patient-months
  Incidence rate of blood glucose ≤70 mg/dl: 0.13 episodes per patient-months
  FBG change at 6 months: -63 mg/dL
  FBG reduction at 6 months: 3.5 mmol/L
  HbA1c reduction from baseline to 12 months: -1.71%
  HbA1c change from baseline to 6 months: -1.70%

## glucagon-like peptide 1 (HAEGTFTSDVSSYLEGQAAKEFIAWLVKGR; ends and bridges not checked; UniProt P01275 98-127, looked up) [GLP-1]
[16]
  Reduction of ERK1/2 activation in Arrb2-/- beta cells: ~ 50%

## insulin
[4]; H9C2, 20mM glucose 3 months
  2-NBD-Glucose uptake after insulin: 17%
[4]; H9C2, 20mM glucose 6 months
  2-NBD-Glucose uptake after insulin: 8%
[4]; H9C2, 30mM glucose 3 months
  2-NBD-Glucose uptake after insulin: 15%
[4]; H9C2GLUT4, 20mM glucose 3 months
  2-NBD-Glucose uptake after insulin: 31%
[4]; H9C2GLUT4, 20mM glucose 6 months
  2-NBD-Glucose uptake after insulin: 27%
[4]; H9C2GLUT4, 30mM glucose 3 months
  2-NBD-Glucose uptake after insulin: 43%

## insulin glargine U100 [IGlar U100]
[17]
  Overall hypoglycaemic episode duration, median (IQR): 35.0 (20.0, 70.0) min
[18]
  Overall hypoglycaemic episode duration, median (IQR): 35.0 (20.0, 60.0) min
